Results on 2 compounds are retold here after US7157482B2, “Antibacterial 1,3-oxazolidin-2-one derivatives” (AstraZeneca AB, priority 2003, dated 2007).

The target in one assay is T1, MAO-A (Homo sapiens, UniProt P21397).
T1 construct: made in house; host or cells: yeast
T1 sequence (P21397 1-527): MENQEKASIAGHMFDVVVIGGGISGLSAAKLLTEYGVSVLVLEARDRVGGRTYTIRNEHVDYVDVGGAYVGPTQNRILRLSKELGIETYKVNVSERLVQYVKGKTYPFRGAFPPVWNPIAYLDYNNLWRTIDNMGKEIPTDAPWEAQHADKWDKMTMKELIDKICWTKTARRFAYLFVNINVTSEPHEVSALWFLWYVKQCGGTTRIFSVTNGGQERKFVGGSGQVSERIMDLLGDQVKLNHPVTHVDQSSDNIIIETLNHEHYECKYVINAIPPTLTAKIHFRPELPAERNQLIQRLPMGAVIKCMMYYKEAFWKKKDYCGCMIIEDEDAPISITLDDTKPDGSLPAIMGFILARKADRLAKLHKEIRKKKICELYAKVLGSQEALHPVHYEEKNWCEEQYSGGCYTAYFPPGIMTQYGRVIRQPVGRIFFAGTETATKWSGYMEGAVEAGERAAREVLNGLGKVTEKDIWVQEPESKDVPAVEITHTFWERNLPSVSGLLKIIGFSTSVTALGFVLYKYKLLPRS
In words: MAO-A in-vitro assay, human liver enzyme expressed in yeast. Format: biochemical. On the procedure: The activity of the compounds of the invention against MAO-A was tested using a standard in-vitro assay based on human liver enzyme expressed in yeast as described in Biochem. Biophys. Res. Commun. 1991, 181, 1084–1088.

The subject of a further assay is Moraxella catarrhalis. In words: MIC, Moraxella catarrhalis. Format: cell-based. The settings on record: fastidious Gram negative: Mueller-Hinton broth with hemin and NAD, 24 hours, 37° C., 5×10^4 CFU/well. As for the experimental part: (§1) The following results were obtained on a standard in-vitro test system. The activity is described in terms of the minimum inhibitory concentration (MIC) determined by the agar-dilution technique with an inoculum size of 10^4 CFU/spot. Typically, compounds are active in the range 0.01 to 256 μg/ml.
(§2) Streptococci and enterococci were tested on agar supplemented with 5% defibrinated horse blood, an inoculum of 10^4 CFU/spot and an incubation temperature of 37° C. in an atmosphere of 5% carbon dioxide for 48 hours—blood is required for the growth of some of the test organisms. Fastidious Gram negative organisms were tested in Mueller-Hinton broth, supplemented with hemin and NAD, grown aerobically for 24 hours at 37° C., and with an innoculum of 5×10^4 CFU/well.

The next assay has as its system Enterococcus faecium. In words: MIC, agar-dilution, Enterococcus faecium. The following applies: agar with 5% defibrinated horse blood, 10^4 CFU/spot, 37° C., 5% carbon dioxide, 48 hours. Format: cell-based. On the procedure:
as §1, §2

Assay [1] concerns Staphylococcus aureus MSQS (methicillin sensitive and quinolone sensitive). In words: MIC, agar-dilution, Staphylococcus aureus MSQS. Format: cell-based. The following applies: S. aureus MSQS, inoculum 10^4 CFU/spot, 37° C., 24 hours. On the procedure:
as §1
(§3) Staphylococci were tested on agar, using an inoculum of 10^4 CFU/spot and an incubation temperature of 37° C. for 24 hours—standard test conditions for the expression of methicillin resistance.

The subject of assay [2] is Staphylococcus aureus MRQR (methicillin resistant and quinolone resistant). In words: MIC, agar-dilution, Staphylococcus aureus MRQR. Format: cell-based. The settings on record: S. aureus MRQR, inoculum 10^4 CFU/spot, 37° C., 24 hours. On the procedure:
as §1, §3

For the next assay, the system named is Streptococcus pneumoniae. In words: MIC, agar-dilution, Streptococcus pneumoniae. Format: cell-based. The following applies: agar with 5% defibrinated horse blood, 10^4 CFU/spot, 37° C., 5% carbon dioxide, 48 hours. On the procedure: as §1, §2

Converted amounts (≈) assume the structure as drawn.

For the compound `Cc1cc(-c2ccc(N3C[C@H](Cn4ccnn4)OC3=O)cc2F)on1` [unsubstituted triazole equivalent, reference compound], the Ki at MAO-A is 6.99 µM.

On to `Cc1cn(C[C@H]2CN(c3ccc(-c4cc(C)no4)c(F)c3)C(=O)O2)nn1` [Example 1, (5R)-3-[3-Fluoro-4-(3-methylisoxazol-5-yl)phenyl]-5-[(4-methyl-1H-1,2,3-triazol-1-yl)methyl]-1,3-oxazolidin-2-one], for which the MIC came to 1 µg/mL (≈ 2.8 µM) against Moraxella catarrhalis; 1 µg/mL (≈ 2.8 µM) against Enterococcus faecium; 4 µg/mL (≈ 11.2 µM) in assay [1]; 1 µg/mL (≈ 2.8 µM) in assay [2]; 0.5 µg/mL (≈ 1.4 µM) against Streptococcus pneumoniae. Moreover, the affinity at MAO-A, expressed as Ki, was 58.8 µM.

Broadly, the Ki is a measure of affinity in units of concentration, obtained from inhibition or displacement. A lower Ki goes with a stronger hold on the target. What is called MIC is the lowest concentration that inhibits growth of the organism. High values mean weaker potency, low ones greater potency.
